Measured values reported in paper PMC8228600, “Design, Synthesis, In Vitro and In Vivo Evaluation of Heterobivalent SiFAlin-Modified Peptidic Radioligands Targeting Both Integrin αvβ3 and the MC1 Receptor—Suitable for the Specific Visualization of Melanomas?” (Pharmaceuticals, 2021).
Like-named read-outs stand apart in the source and are kept apart here.

Legend:
[1] = Ex vivo biodistribution in tumor-bearing nude mice (non-tumor tissues); details: male, Balb/cAnNRj-Foxn1nu/nu (nude), mouse, iv, total radioactivity, ex vivo after PET/CT scan, i.v., n = 3
Experimental: (§1) For the evaluation of the in vivo pharmacokinetics, the two most promising HBPLs—[^18F]2 with the highest affinity to both target receptors and [^18F]4 with the highest hydrophilicity and still reasonable binding affinities—were selected. For PET/CT imaging, 6-week-old male nude mice (Balb/cAnNRj-Foxn1^nu/nu) were subcutaneously injected with 5 × 10^5 B16F10 cells into the right flank and 2.0–2.5 × 10^6 U87MG cells into the left flank to generate the respective receptor-positive tumors. When the tumors reached a sufficient size for imaging, each mouse was administered 4.15 ± 2.28 MBq of [^18F]2 or 3.95 ± 2.06 MBq of [^18F]4 via the lateral tail vein under isoflurane anesthesia. To determine the receptor specificity of both peptide parts of the labeled HBPLs and their relative contribution to overall tumor uptake, blocking experiments were also performed. […] After i.v. injection of the tracers, a dynamic PET scan, followed by a CT scan, was performed. The resulting PET/CT images and time–activity curves (TACs) are depicted in Figure 6, Figure 7 and Figure 8. After completion of the diagnostic scans, the mice were sacrificed, their organs (blood, spleen, liver, kidney, pancreas, lung, heart, brain, bone, muscle, tail, tumors, stomach, colon and small intestine) were collected and measured in a γ-counter for ex vivo biodistribution (see Supplementary Materials Table S1 for detailed results).
(§2) Each male nude mouse (six weeks old) was injected subcutaneously with 5 × 10^5 B16F10 cells into the right flank and 2.0–2.5 × 10^6 U87MG cells into the left flank. The health status and tumor growth of the mice were monitored regularly until the animals could be examined after 15–21 days, depending on the tumor size. For the in vivo experiments, the ^18F-radiolabeled compound was diluted in 0.9% saline to give a final EtOH concentration of <10%. Each mouse was injected with 4.15 ± 2.28 MBq of [^18F]2 or 3.95 ± 2.06 MBq of [^18F]4 via the lateral tail vein under isoflurane anesthesia. […] Each ^18F-labeled compound was studied with or without blocking in at least three mice. Mice were measured under isoflurane anesthesia in a small PET/SPECT/CT animal imaging system. First, a dynamic PET scan was performed over 90 min and the scan was framed in 29 timeframes (10 × 1 min, 10 × 2 min, 6 × 5 min, 3 × 10 min). Images were reconstructed using 12 iterations, a maximum likelihood expectation maximization (MLEM) algorithm including corrections for scattered radiation and decay and a voxel size of 0.5 mm. All PET scans were immediately followed by CT acquisition at a voltage of 45 kV and a current of 400 μA. The images were reconstructed using the filtered back projection (FBP) algorithm with a voxel size of 250 μm. The analysis of the data, including the generation of TACs of the kidneys, liver and tumors and the MIPs, was performed via PMOD (v3.8). For ex vivo biodistribution, the mice were sacrificed directly after the PET/CT scan. Organs (blood, spleen, liver, kidneys, pancreas, lungs, heart, brain, bone, muscle, tail, tumors, stomach, colon and small intestine) were collected, weighed and their radioactivity measured in a γ-counter. The percentage injected dose per gram (% ID/g) of each tissue was calculated from the determined values, organ weights, reference values and injected activity.

B16F10 and U87MG tumors = test: In vivo dynamic PET/CT imaging and time–activity curves; parameters: species or system nude mice (Balb/cAnNRj-Foxn1nu/nu)
Experimental: as §1
Briefly, 4–5-week-old male nude mice (Balb/cAnNRj-Foxn1^nu/nu) were obtained from Janvier. A dynamic PET scan over 90 min and a subsequent CT image over 20 min were acquired using a triple-modality Bruker Albira II small-animal PET/CT/SPECT scanner. Three animals were studied per group.
as §2

[2] = logD(7.4) determination (n-octanol / phosphate buffer distribution); format: physicochemical; details: n-octanol / 0.05 M phosphate buffer pH 7.4; mean ± SD
Experimental: Since high lipophilicity of peptidic radiotracers can lead to a high plasma protein binding, resulting in unspecific organ and high liver uptakes, thus negatively impact tumor visualization, the lipophilicity of the HBPLs was determined to get an approximate estimation of the in vivo biodistribution behavior of the radioligands. Therefore, the logD(7.4) values of the SiFAlin-modified HBPLs [^18F]1–[^18F]6 were determined via their distribution coefficient between n-octanol and phosphate buffer at pH 7.4.
The radiotracer solutions were first diluted with 0.9% NaCl solution to give a final EtOH concentration of <10%. A total of 5 MBq of the respective radiotracer in solution was added to 1.6 mL of a mixture of n-octanol and 0.05 M phosphate buffer (pH = 7.4) (v/v, 1/1), and the solution was vigorously shaken for 5 min. Subsequently, the phases were separated by centrifugation at 13.4 rpm for 2 min, and 100 μL of organic and aqueous phases were collected. The activity of each sample was measured using a gamma counter. The lipophilicity of each compound was determined in triplicate in three independent experiments.

## CCCC[C@H](NC(=O)CNC(=O)CNC(=O)CCOCCOCCOCCOCCC(=O)NCCCN(CCCNC(=O)CCOCCOCCOCCOCCC(=O)NCCCC[C@@H]1NC(=O)[C@@H](Cc2ccccc2)NC(=O)[C@H](CC(=O)O)NC(=O)CNC(=O)[C@H](CCCNC(=N)N)NC1=O)CC(=O)N[C@@H](CCCCNC(=O)CCC[N+](C)(C)Cc1ccc([Si](F)(C(C)(C)C)C(C)(C)C)cc1)C(N)=O)C(=O)N[C@H]1CC(=O)NCCCC[C@@H](C(N)=O)NC(=O)[C@H](Cc2c[nH]c3ccccc23)NC(=O)[C@H](CCCNC(=N)N)NC(=O)[C@@H](Cc2ccccc2)NC(=O)[C@H](Cc2c[nH]cn2)NC1=O [[^18F]2]
[1]; blood, NDP blocking (20 μg coinjected), read-out: ID/g, blood
  tissue uptake at 1.5 h: 0.84 ± 0.12 %ID/g
[1]; blood, c(RGDyK) blocking (200 μg coinjected), read-out: ID/g, blood
  tissue uptake at 1.5 h: 1.14 ± 0.15 %ID/g
[1]; blood, double blocking (NDP + c(RGDyK)), read-out: ID/g, blood
  tissue uptake at 1.5 h: 1.13 ± 0.1 %ID/g
[1]; blood, without blocking, read-out: ID/g, blood
  tissue uptake at 1.5 h: 0.99 ± 0.23 %ID/g
[1]; bone, NDP blocking (20 μg coinjected), read-out: ID/g, bone
  tissue uptake at 1.5 h: 9.74 ± 2.85 %ID/g
[1]; bone, c(RGDyK) blocking (200 μg coinjected), read-out: ID/g, bone
  tissue uptake at 1.5 h: 4.12 ± 0.73 %ID/g
[1]; bone, double blocking (NDP + c(RGDyK)), read-out: ID/g, bone
  tissue uptake at 1.5 h: 4.47 ± 1.57 %ID/g
[1]; bone, without blocking, read-out: ID/g, bone
  tissue uptake at 1.5 h: 8.01 ± 3.48 %ID/g
[1]; brain, NDP blocking (20 μg coinjected), read-out: ID/g, brain
  tissue uptake at 1.5 h: 0.13 ± 0.03 %ID/g
[1]; brain, c(RGDyK) blocking (200 μg coinjected), read-out: ID/g, brain
  tissue uptake at 1.5 h: 0.13 ± 0.05 %ID/g
[1]; brain, double blocking (NDP + c(RGDyK)), read-out: ID/g, brain
  tissue uptake at 1.5 h: 0.07 ± 0.01 %ID/g
[1]; brain, without blocking, read-out: ID/g, brain
  tissue uptake at 1.5 h: 0.18 ± 0.02 %ID/g
[1]; colon, NDP blocking (20 μg coinjected), read-out: ID/g, colon
  tissue uptake: 1.44 ± 0.34 %ID/g
[1]; colon, c(RGDyK) blocking (200 μg coinjected), read-out: ID/g, colon
  tissue uptake: 0.5 ± 0.07 %ID/g
[1]; colon, double blocking (NDP + c(RGDyK)), read-out: ID/g, colon
  tissue uptake: 0.63 ± 0.2 %ID/g
[1]; colon, without blocking, read-out: ID/g, colon
  tissue uptake: 1.58 ± 0.44 %ID/g
[1]; heart, NDP blocking (20 μg coinjected), read-out: ID/g, heart
  tissue uptake at 1.5 h: 1.06 ± 0.31 %ID/g
[1]; heart, c(RGDyK) blocking (200 μg coinjected), read-out: ID/g, heart
  tissue uptake at 1.5 h: 0.62 ± 0.09 %ID/g
[1]; heart, double blocking (NDP + c(RGDyK)), read-out: ID/g, heart
  tissue uptake at 1.5 h: 0.93 ± 0.18 %ID/g
[1]; heart, without blocking, read-out: ID/g, heart
  tissue uptake at 1.5 h: 1.24 ± 0.36 %ID/g
[1]; kidneys, NDP blocking (20 μg coinjected), read-out: ID/g, kidneys
  tissue uptake at 1.5 h: 17.3 ± 2.08 %ID/g
[1]; kidneys, c(RGDyK) blocking (200 μg coinjected), read-out: ID/g, kidneys
  tissue uptake at 1.5 h: 12.1 ± 2.3 %ID/g
[1]; kidneys, double blocking (NDP + c(RGDyK)), read-out: ID/g, kidneys
  tissue uptake at 1.5 h: 24 ± 6.34 %ID/g
[1]; kidneys, without blocking, read-out: ID/g, kidneys
  tissue uptake at 1.5 h: 13.2 ± 3.57 %ID/g
[1]; liver, NDP blocking (20 μg coinjected), read-out: ID/g, liver
  tissue uptake at 1.5 h: 14.9 ± 5.07 %ID/g
[1]; liver, c(RGDyK) blocking (200 μg coinjected), read-out: ID/g, liver
  tissue uptake at 1.5 h: 4.94 ± 1.39 %ID/g
[1]; liver, double blocking (NDP + c(RGDyK)), read-out: ID/g, liver
  tissue uptake at 1.5 h: 8.5 ± 2.71 %ID/g
[1]; liver, without blocking, read-out: ID/g, liver
  tissue uptake: 17.2 ± 6.58 %ID/g
[1]; lung, NDP blocking (20 μg coinjected), read-out: ID/g, lung
  tissue uptake at 1.5 h: 2.98 ± 0.87 %ID/g
[1]; lung, c(RGDyK) blocking (200 μg coinjected), read-out: ID/g, lung
  tissue uptake at 1.5 h: 1.07 ± 0.15 %ID/g
[1]; lung, double blocking (NDP + c(RGDyK)), read-out: ID/g, lung
  tissue uptake at 1.5 h: 1.3 ± 0.36 %ID/g
[1]; lung, without blocking, read-out: ID/g, lung
  tissue uptake at 1.5 h: 2.89 ± 1.04 %ID/g
[1]; muscle, NDP blocking (20 μg coinjected), read-out: ID/g, muscle
  tissue uptake at 1.5 h: 1.37 ± 0.26 %ID/g
[1]; muscle, c(RGDyK) blocking (200 μg coinjected), read-out: ID/g, muscle
  tissue uptake at 1.5 h: 0.38 ± 0.04 %ID/g
[1]; muscle, double blocking (NDP + c(RGDyK)), read-out: ID/g, muscle
  tissue uptake at 1.5 h: 0.34 ± 0.07 %ID/g
[1]; muscle, without blocking, read-out: ID/g, muscle
  tissue uptake at 1.5 h: 4.37 ± 2.58 %ID/g
[1]; pancreas, NDP blocking (20 μg coinjected), read-out: ID/g, pancreas
  tissue uptake at 1.5 h: 0.8 ± 0.15 %ID/g
[1]; pancreas, c(RGDyK) blocking (200 μg coinjected), read-out: ID/g, pancreas
  tissue uptake at 1.5 h: 0.36 ± 0.04 %ID/g
[1]; pancreas, double blocking (NDP + c(RGDyK)), read-out: ID/g, pancreas
  tissue uptake at 1.5 h: 0.55 ± 0.15 %ID/g
[1]; pancreas, without blocking, read-out: ID/g, pancreas
  tissue uptake at 1.5 h: 0.91 ± 0.29 %ID/g
[1]; small intestine, NDP blocking (20 μg coinjected), read-out: ID/g, small intestine
  tissue uptake: 2.75 ± 0.36 %ID/g
[1]; small intestine, c(RGDyK) blocking (200 μg coinjected), read-out: ID/g, small intestine
  tissue uptake: 0.75 ± 0.11 %ID/g
[1]; small intestine, double blocking (NDP + c(RGDyK)), read-out: ID/g, small intestine
  tissue uptake: 0.9 ± 0.23 %ID/g
[1]; small intestine, without blocking, read-out: ID/g, small intestine
  tissue uptake: 2.46 ± 1.77 %ID/g
[1]; spleen, NDP blocking (20 μg coinjected), read-out: ID/g, spleen
  tissue uptake: 2.75 ± 0.55 %ID/g
[1]; spleen, c(RGDyK) blocking (200 μg coinjected), read-out: ID/g, spleen
  tissue uptake: 0.94 ± 0.19 %ID/g
[1]; spleen, double blocking (NDP + c(RGDyK)), read-out: ID/g, spleen
  tissue uptake: 1.07 ± 0.32 %ID/g
[1]; spleen, without blocking, read-out: ID/g, spleen
  tissue uptake: 2.73 ± 0.85 %ID/g
[1]; stomach, NDP blocking (20 μg coinjected), read-out: ID/g, stomach
  tissue uptake: 1.52 ± 0.31 %ID/g
[1]; stomach, c(RGDyK) blocking (200 μg coinjected), read-out: ID/g, stomach
  tissue uptake: 0.54 ± 0.04 %ID/g
[1]; stomach, double blocking (NDP + c(RGDyK)), read-out: ID/g, stomach
  tissue uptake: 0.54 ± 0.12 %ID/g
[1]; stomach, without blocking, read-out: ID/g, stomach
  tissue uptake: 1.56 ± 0.29 %ID/g
[1]; tail, NDP blocking (20 μg coinjected), read-out: ID/g, tail
  tissue uptake at 1.5 h: 37.6 ± 8.67 %ID/g
[1]; tail, c(RGDyK) blocking (200 μg coinjected), read-out: ID/g, tail
  tissue uptake at 1.5 h: 69 ± 3.84 %ID/g
[1]; tail, double blocking (NDP + c(RGDyK)), read-out: ID/g, tail
  tissue uptake: 53.3 ± 12.8 %ID/g
[1]; tail, without blocking, read-out: ID/g, tail
  tissue uptake at 1.5 h: 38 ± 14.4 %ID/g
B16F10 and U87MG tumors; PET/CT scans, MIPs 50–90 min post-injection
  visualization of B16F10 and U87MG tumors by PET/CT: clearly visualize
B16F10 and U87MG tumors; dynamic PET over 90 min, i.v.
  time at which uptakes in kidneys and liver reached their maximum (TACs): 5 to 10 min
B16F10 and U87MG tumors; dynamic PET over 90 min, i.v., B16F10 and U87MG tumors
  time at which the curves of both tumors approached a plateau (TACs): about 70 min
[2]
  logD: -1.19 ± 0.05
